Measured values: patent US20070071681A1, “Apparatus and method for computer modeling type 1 diabetes” (Entelos, Inc., priority 2005, published 2007)
Read-outs that look alike come from different tables or passages of the source.

Key:
[1] = system: NOD mouse; settings: cited from earlier work; for Protection in the NOD mouse: protective therapeutic interventions suggested to depend on NK cell activities; for Protection from diabetes: pre-diabetic NOD mice
[2] = system: BB rats; settings: cited from earlier work
[3] = system: average virtual NOD mouse; assay: Simulation of therapy protocols in the average virtual NOD mouse (computer model of type 1 diabetes); settings: expectation from published data
Description: One application of a NOD mouse type 1 diabetes model is to improve understanding of type 1 diabetes pathogenesis in the NOD mouse. Model development therefore focused on islet β cell autoimmunity and tolerance, as well as related mechanisms and interventions. To provide for general immunologic function and not only progression to diabetes, the development effort included representation of several NOD mouse phenotypes. The first phenotype was an average diabetic virtual mouse. […] Typically, a simulation of the average virtual mouse concludes shortly after diabetes diagnosis, which is consistent with post-diabetic sacrifice of NOD mice in the laboratory. […] Additional virtual mice, each with different clinical behaviors and/or underlying pathophysiologies, have also been generated. Similarly, development of modals of type 1 diabetes in other mammals, such as humans, can include the development of various virtual patients representing normal animals or animals having varying degrees of severity or progression of type 1 diabetes.
Because diabetes is typically assessed by measuring blood or urinary glucose, blood glucose levels were represented in the model's clinical read-out. Hyperglycemia (a diabetes indicator) was defined as a glucose level in excess of a commonly used standard (e.g., 200, 250, 300, 350 mg/dl). Glucose control was regulated based on a mathematical relationship describing interactions between blood insulin and glucose concentrations.
These include (i) dynamics of diabetes onset, (ii) dynamics of pancreatic lymph node (PLN) lymphocyte activation and expansion, and (iii) dynamics of islet infiltrate.
Numerous interventions have been tested in the NOD mouse. A major purpose of implementing selected interventions is to provide constraints for the virtual mouse, where constraints are defined as additional behavioral criteria that the virtual mouse should reproduce in a manner substantially consistent with published data. […]

[4] = system: recent onset diabetic patients; settings: cited from earlier work; for Therapeutic response: insulin tolerization

CN(C(=O)c1c(O)c2ccccc2n(C)c1=O)c1ccccc1 [linomide]
Protection in the NOD mouse [1]: protection

NC(=O)c1cccnc1 [nicotinamide]
Protection from diabetes [1]: protection
Protection from diabetes [2]: not

Exendin-4: exendin-4; enhances glucose-dependent insulin secretion
Incidence ([1]; Exendin-4, Ogawa 2004, 7-17 days after diagnosis of diabetes, 12 nmol/kg for 4 consec. days twice): No remission
Expected virtual mouse outcome ([3]; Exendin-4, Ogawa 2004 protocol): No remission

Exogenous TGF-β: exogenous TGF-β delivered as 200 μg of pCMV-TGF-β1
Incidence ([1]; Exogenous TGF-β, Piccirillo 1998, 9-32 wks, 200 μg of pCMV-TGF-β1 every 2 wks, at 32 wks, vs 100% control): 42% vs. 100% control at 32 wks
Insulitis ([1]; Exogenous TGF-β, Piccirillo 1998): Reduced severity of insulitis
Other observations ([1]; Exogenous TGF-β, Piccirillo 1998, islet mRNA levels): Reduced mRNA levels of islet IL-12 & IFN-γ

IFN-α
Protection in the NOD mouse [1]: protective

Oral insulin: orally administered (porcine) insulin for induction of oral tolerance
Incidence ([1]; Oral insulin, Homann 1999 (1 mg), Rx 5-45 weeks, at 45 weeks, vs 63% control): 26% treated vs.
Incidence ([1]; Oral insulin, Zhang 1991 (0.1 mg), Rx 5-52 weeks, at 52 weeks, vs 49% control): 44% treated vs.
Incidence ([1]; Oral insulin, Zhang 1991 (1 mg), Rx 5-52 weeks, at 52 weeks, vs 49% control): 26% treated vs.
Protection against diabetes ([1]; oral administration of insulin, induction of oral tolerance): protect against diabetes
Protection from diabetes [1]: protection
Expected virtual mouse outcome ([3]; Oral insulin, Homann 1999 (1 mg), at 45 weeks): No diabetes at 45
Expected virtual mouse outcome ([3]; Oral insulin, Zhang 1991 (1 mg), at 52 weeks): No diabetes at 52 weeks
Protection from diabetes [2]: not

hOKT3γ1 (Ala-Ala): modified, dimeric non-FcR binding anti CD3 antibody used in human clinical trials
Human clinical trial results ([4]; recent onset diabetic patients, Herold 2002): promising

insulin: insulin tolerization therapy tested in human clinical trials
Therapeutic response ([4]; general clinical trial population): responded poorly
Therapeutic response ([4]; patients characterized by high insulin autoantibody titers): better therapeutic responses

poly(I:C)
Protection in the NOD mouse [1]: protective
